From patent US20150094264A1, “USE OF OBESTATIN FOR MUSCLE REGENERATION” (UNIVERSIDADE DE SANTIAGO DE COMPOSTELA, priority 2012, published 2015)

Experiments:
[1] = test system: damaged tibialis anterior of mouse; test: Histological (hematoxylin/eosin) analysis of muscle regeneration in damaged tibialis anterior of mouse; format: in vivo, Swiss mice; settings: 300 nmol/kg weight local
Procedure: FIG. 9. Immunohistochemical analysis of the effect of the exogenous administration of obestatin on the capacity for muscle regeneration in the damaged tibialis anterior of mouse (animal model). The images shown are representative of the sections of the damaged tibialis anterior muscle (hematoxylin/eosin staining) under the local exogenous administration of obestatin (300 nmol/kg/24 h) or PBS (control) 48, 96, 168 and 240 h after inducing the damage. The images show the area of damage and regeneration at the indicated times.
FIG. 10. Quantitative analysis of the areas of the regenerative fibres of the tibialis anterior 96 and 168 hours after inducing the damage and exogenous administration of obestatin or PBS (control). The analysis corresponds to the area of regeneration myofibers in the tibialis anterior. For this purpose, an immunohistochemical analysis was performed by staining with hematoxylin/eosin and later quantification of the area of the myofiber by the use of the ImageJ64 program (n=10 per group; mean±standard error; *, p<0.005).
The muscle samples were mounted in a cold freezing medium [Tragacanth; Santa Cruz Biotechnology (CA, USA)] and frozen in a mixture of nitrogen-isopentane. The tissue sections were obtained by serial cuts with a cryostat (10 μm) and were mounted in adhesion slides for histochemistry (Marienfeld, Lauda-Konigshofen, Germany). The sections fixed were stained with hematoxylin/eosin. The quantification of the area of the regenerative myofibers was performed by using ImageJ64 analysis software.
The mice (30 g; n=50) were maintained in 12 h light-darkness cycled with free access to standard diet and water. To induce the muscle damage, the tibialis anterior muscle (TA) was extracted under anaesthesia and subjected to three cycles of damage due to cold contact applying along the length of the muscle a metal bar cooled in liquid nitrogen. The damaged muscles were treated locally with obestatin injection (300 nmol/kg weight) or the corresponding vehicle (PBS; control) during the times indicated in 24 h intervals. […]

[2] = test system: L6E9 myoblasts; test: Cicatrization capacity (migration/invasion) in L6E9 myoblasts; format: cell-based, rat; settings: obestatin 5 nM
Procedure: FIG. 6. Evaluation of the cicatrization capacity (migration/invasion) of obestatin in L6E9 myoblasts. A: the L6E9 myoblasts grew to 100% of confluence in GM and later the damage was induced with a sterile pipette. The cells were maintained in GM or GM-obestatin (5 nM) during 8 and 24 hours after the induction of cell damage (40× magnification). B: quantification of the % of cicatrization (mean±standard error; *, p<0.05).
The L6E9 cells were cultured until reaching a confluence of 100% in GM. Having reached said confluence, the damage was produced by the use of a sterile pipette point which made it possible to perform two linear and perpendicular channels. After the damage, the cells were washed and cultured with GM or GM+obestatin (5 nM). The progress of the migration was immediately photographed after the damage and at 8 and 24 hours, close to the crossing point. The “invaded” area was calculated by tracing the “cicatrization” edge and using ImageJ64 software. The percentage of cicatrization was calculated based on the following equation:% cicatrization=[(area 0 h−area xh)/area 0 h]×100.

[3] = test system: p38; test: Activation of p38 [pp38(Y138)] by obestatin in L6E9 myoblasts, immunoblot; format: cell-based, rat
Procedure: FIG. 1. Activation of regulatory enzymes of mitogenesis and myogenesis by obestatin in L6E9 myoblasts and myotubes. Effect of obestatin on activity of regulatory enzymes of the mitogenic capacity (ERK 1/2), metabolic capacity (Akt and AMPK) and myogenic capacity (Akt and p38). Based on a dose-response study, the saturating dose for the maximum enzymatic activation is established for a concentration of 5 nM. […] Inactivation of AMPK is described in both cell models. The activation profile discovers bimodal characteristics for the action of obestatin: 1.—mitogenic activation in myoblasts; and, 2.—myogenic activation. The immunoblots are representative of 6 independent assays.
The studies were performed based on the use of L6E9 rat myoblasts which were maintained in growth medium (GM) formed by DMEM (Dulbecco's Modified Eagle Medium) supplemented with 10% fetal bovine serum (FBS), 100 U/mL penicillin, and 100 U/mL streptomycin. For the differentiation, the cells were cultured at 80-100% of confluence in GM and it was replaced for differentiation medium (DM) formed by DMEM supplemented with 2% FBS, 100 U/mL penicillin, and 100 U/mL streptomycin during 6 days.
The tissue or cell samples were directly lysed in RIPA buffer [Tris-HCl (pH 7.2), 50 mM; NaCl, 150 mM; EDTA, 1 mM; NP-40, 1% (v/v); Sodium deoxycholate, 0.25% (w/v); protease inhibitors (Sigma); phosphatise inhibitors (Sigma)]. The lysates were clarified by centrifugation (14,000×g during 15 min at 4° C.) and the protein concentration was quantified using QuantiPro™ BCA assay kit (Sigma). For immunoblot, equal amounts of protein were loaded which were fractionated in SOS-PAGE gels and transferred to nitrocellulose membranes. The immunoreactive bands were detected by chemiluminescence (Pierce ECL Western Blotting Substrate; Thermo Scientific, Ill., USA).
To define the mitogenic and myogenic effect of obestatin, the activation capacity was studied of intracellular targets regulating proliferation (ERK1/2) and/or differentiation (p38 and Akt). […]

[4] = test system: damaged tibialis anterior of mouse; test: Blood vessels (isolectin positive) per myofiber in damaged tibialis anterior of mouse; format: in vivo, Swiss mice; settings: 300 nmol/kg/24 h; 10 days after induction of muscle damage
Procedure: FIG. 13. Quantification of the blood vessels per myofiber in the tibialis anterior 10 days after the induction of muscle damage and exogenous treatment of obestatin (300 nmol/kg/24 h) or vehicle (PBS). Quantification of the number of blood vessels (immunofluorescence: positivity to isolectin) per myofiber (mean±standard error; *, p<0.005) of sections of the tibialis anterior treated with obestatin (300 nmol/kg/24 h) or PBS (control) 10 days after inducing the damage.
For the tissue immunofluorescence analysis, frozen sections were obtained which were fixed using a buffered solution of PBS-paraformaldehyde during 15 min, washed, permeabilized and blocked with PBT during 30 min, and later incubated with the corresponding primary antibody (anti-eMHC, anti-laminin antibody) diluted in PBT (1:50) during 12 h at 4° C. After three washes with PBS, the tissue sections were incubated with secondary antibody in PBT (1:1000) during 45 min at 37° C. […] The digital images of the cell culture were acquired with a Leica TCS-SP2 confocal microscope.
The mice (30 g; n=50) were maintained in 12 h light-darkness cycled with free access to standard diet and water. To induce the muscle damage, the tibialis anterior muscle (TA) was extracted under anaesthesia and subjected to three cycles of damage due to cold contact applying along the length of the muscle a metal bar cooled in liquid nitrogen. […]

For obestatin, the “regenerative process (restructuring of the myofibers in the area of damage) in relation to controls” value ([1]; 48, 96, 168 and 240 h) was “acceleration”, the “area of the regenerative fibres in the tibialis anterior in relation to controls” value ([1]; 96 and 168 h after the treatment) was “significant increase” and the “calibre of the regenerative myofibers in relation to controls” value ([1]; hematoxylin/eosin sections) was “significant increase”. For the same substance, the “increase of migration index (cicatrization) in relation to control cells” value ([2]; 8 hours after inducing cell damage) was 53%, the “increase of migration index (cicatrization) in relation to control cells” value ([2]; 24 hours after inducing cell damage) was 21% and the “obestatin concentration at which activation of p38 [pp38(Y138)] was observed” value [3] was 0.1 nM. For the same substance, the “obestatin concentration at which pp38(Y138) phosphorylation levels reached saturable values” ([3]; dose-response) was 5 nM, the “time post-stimulation of maximum pp38(Y138) levels” value ([3]; obestatin 5 nM) was 10 min and the “capillary density (isolectin-positive blood vessels per myofiber) in relation to vehicle (PBS)” value [4] was “significant increase”.
